Source: PMC8795149, “Characterization of a novel non-steroidal glucocorticoid receptor agonist optimized for topical treatment” (Scientific Reports, 2022)

Key:
Assay type in all cases: cell-based
[1] = tested on: LPS-induced TNF-alpha release in PBMCs; assay: TNF-alpha inhibition assay, pig PBMCs; settings: for EC50: geometric mean
Protocol: (§1) PMBCs were isolated from human buffy coats or animal whole blood (EDTA-treated). Buffy coats from anonymized healthy adult blood donors were obtained from the Blood Bank of the National University Hospital Copenhagen in accordance with national legislation. Whole blood from mice (obtained from Charles River) was sampled at the animal facility at LEO Pharma and whole blood from pigs was sourced from ScanTox. Test compounds and PBMCs were incubated with 1 µg/ml LPS (Sigma) overnight at 37 °C in HEPES and Glutamax-containing RPMI medium supplemented with either 0.5% human serum albumin (human PBMCs) or 10% fetal bovine serum (mouse and pig PBMCs) and penicillin/streptomycin. TNF-alpha was measured using AlphaLISA (Perkin Elmer).
(§2) IC50 of test compounds was determined by 10-point titrations in duplicates. IC50 values and other parameters were calculated by sigmoidal curve fitting in Assay Explorer.

[2] = tested on: LPS-induced TNF-alpha release in PBMCs; assay: TNF-alpha inhibition assay, human PBMCs; settings: for EC50: geometric mean; for Potency compared to LEO 134310, TNF-alpha release: human PBMC assay
Protocol: as §1, §2

[3] = tested on: FKBP5 mRNA (GR target engagement); assay: Human skin explant, FKBP5 gene expression; settings: human skin explants; for FKBP5 Emax / FKBP5 Relative ED50 (API concentration in dosing solution): topical, 24 h; for FKBP5 Relative ED50 (API concentration in dosing solution): weighted geometric mean ± SD
Protocol: (§3) NativeSkin models (NS002) were purchased from Genoskin, France. Human skin samples from abdominal reduction surgery were obtained by Genoskin from donors upon written informed consent. Full ethical approval for the study protocol was obtained from the French ethical research committee (Comité de Protection des Personnes), and authorization was given by the French Ministry of Research. The study was conducted according to the Declaration of Helsinki. 8 mm punch biopsies were excised and embedded in a fibrin-based matrix in transwells and a silicone ring was firmly attached to the surface covering the outer edge of the skin biopsy to prevent lateral diffusion of topically applied formulations. Skin models were cultured in a defined hydrocortisone- and serum-free medium provided by Genoskin.
(§4) LEO 134310 and reference glucocorticoids were dissolved in propylene carbonate and tested at 4 concentrations in five- or tenfold titrations. Compounds were applied in duplicates or triplicates on the skin surface (0.5 cm^2) in a volume of 2 µL and incubated for 24 h. Vehicle and untreated samples were included for basal level of expression.
(§5) RNA was extracted and qPCR was performed using TaqMan gene expression assays (FKBP5-Hs01561006_m1, TSC22D3 (GILZ)-Hs00608272_m1, TXNIP-Hs01006900_g1, ACTB-Hs99999903_m1, PPIA-Hs99999904_m1, GAPDH-Hs99999905_m1). Gene expression of FKBP5,TSC22D3 (GILZ), and TXNIP was normalized to the geometric mean of the reference genes ACTB, PPIA and GAPDH.
(§6) Doses were expressed as compound (API) concentrations (µg/mL) in the applied formulations. Relative upregulation of FKBP5 was estimated as − fold to vehicle treated control. Effective doses (Emax and ED50) were determined from a sigmoid Emax model in Phoenix64 version 8.0, Pharsight, Certara. Mean values and standard deviation of Emax and ED50 were calculated by weighing individual experiments based on the intra- and inter-experiment variability.

TXNIP mRNA = assay: Human skin explant, TXNIP gene expression; settings: human skin explants, topical, 24 h; for TXNIP Relative ED50: weighted geometric mean ± SD
Protocol: as §3, §4, §5, §6

[4] = target: T1, mineralocorticoid receptor (MR) (Homo sapiens, UniProt P08235); assay: MR agonist assay, MR-luciferase reporter cells; settings: 24 h incubation; 'in contrast' = unlike LEO 134310, which gave no significant activation
T1 sequence (P08235 1-984): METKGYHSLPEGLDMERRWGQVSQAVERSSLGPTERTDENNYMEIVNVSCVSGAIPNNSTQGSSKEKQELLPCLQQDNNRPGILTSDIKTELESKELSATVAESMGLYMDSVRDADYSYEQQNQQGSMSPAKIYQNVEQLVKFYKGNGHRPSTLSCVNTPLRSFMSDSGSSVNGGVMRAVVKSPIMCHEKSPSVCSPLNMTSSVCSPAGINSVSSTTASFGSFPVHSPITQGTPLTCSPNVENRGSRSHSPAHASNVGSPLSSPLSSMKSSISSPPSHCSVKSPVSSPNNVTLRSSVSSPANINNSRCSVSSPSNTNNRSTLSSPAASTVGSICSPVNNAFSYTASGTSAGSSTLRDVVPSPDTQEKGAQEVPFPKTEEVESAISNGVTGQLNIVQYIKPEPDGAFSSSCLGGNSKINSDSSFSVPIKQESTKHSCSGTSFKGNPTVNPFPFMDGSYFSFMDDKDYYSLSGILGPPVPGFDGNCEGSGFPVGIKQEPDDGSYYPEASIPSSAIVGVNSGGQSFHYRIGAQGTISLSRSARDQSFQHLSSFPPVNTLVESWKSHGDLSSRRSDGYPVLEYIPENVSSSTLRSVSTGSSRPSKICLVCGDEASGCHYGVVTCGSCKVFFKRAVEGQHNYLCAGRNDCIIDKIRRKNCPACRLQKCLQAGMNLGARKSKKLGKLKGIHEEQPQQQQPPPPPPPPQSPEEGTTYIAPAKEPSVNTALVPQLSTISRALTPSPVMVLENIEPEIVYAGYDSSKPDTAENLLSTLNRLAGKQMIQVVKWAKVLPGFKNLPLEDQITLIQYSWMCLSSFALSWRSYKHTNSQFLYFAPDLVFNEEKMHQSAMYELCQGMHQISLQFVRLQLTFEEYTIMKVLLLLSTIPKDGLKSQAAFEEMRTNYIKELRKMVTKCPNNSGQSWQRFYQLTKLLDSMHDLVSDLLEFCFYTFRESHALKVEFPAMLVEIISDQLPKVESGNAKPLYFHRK
Protocol: Assays were performed at Indigo Biosciences according to standard protocols. In brief, MR-luciferase reporter cells were incubated with medium containing charcoal-stripped fetal bovine serum and incubated with test and reference compounds for 24 h before measuring luminescence. Data were fitted by the means of four parameter logistic regression.

Compound	Emax ([1]; Sus scrofa, PBMC) [%]	EC50 ([1]; Sus scrofa, PBMC) [nM]	Emax ([2]; PBMC, Human PBMCs) [%]	EC50 ([2]; PBMC, Human PBMCs) [nM]	Potency compared to LEO 134310, TNF-alpha release [2]	FKBP5 Emax [3]	FKBP5 Relative ED50 (API concentration in dosing solution) [3]	TXNIP Emax (TXNIP mRNA)	TXNIP Relative ED50 (TXNIP mRNA)	Activation of MR (luciferase activity) [4]	Inhibition of LPS-induced TNF-alpha release Emax [1] [%]	EC50 [1] [nM]	Inhibition of LPS-induced TNF-alpha release Emax ([2]; Human PBMCs) [%]	EC50 ([2]; Human PBMCs) [nM]	Higher dose needed to achieve similar level of FKBP5 induction as BMV [3]
CCC(=O)O[C@]1(C(=O)CCl)[C@@H](C)C[C@H]2[C@@H]3CCC4=CC(=O)C=C[C@]4(C)[C@@]3(F)[C@@H](O)C[C@@]21C [CP, Clobetasol Propionate]	95	0.38	79	0.52	fourfold more potent	6.9 ± 3.1^NS fold to control	0.52 ± 0.06^NS µg/mL	19 ± 8.5^NS fold to control	1.3 ± 0.33 µg/mL	in contrast					
C[C@H](NC(=O)[C@H]1CCCO1)[C@H](Oc1ccc(C(=O)O[C@H]2CCCN(C(=O)[C@H]3COC(=O)C3)C2)cc1)c1ccc(C2CC2)cc1 [LEO 134310]						7.2 ± 2.7^NS fold to control	270 ± 130 µg/mL	19 ± 7.3^NS fold to control	110 ± 300^NS µg/mL	No significant activation of MR	96	3.2	77	2.3	approximately 30 fold
CCCCC(=O)O[C@]1(C(=O)CO)[C@@H](C)C[C@H]2[C@@H]3CCC4=CC(=O)C=C[C@]4(C)[C@@]3(F)[C@@H](O)C[C@@]21C [BMV, Betamethasone Valerate]	99	1.5	79	3.2	equipotent	5.6 ± 4.9 fold to control	9.5 ± 6.9 µg/mL	17 ± 17 fold to control	52 ± 15 µg/mL	in contrast					
